In patent US12435044B2, “Pyridazinone herbicides and pyridazinone intermediates used to prepare a herbicide” (FMC Corporation, priority 2018, dated 2025):

Assays:
Assay in all cases: Test G preemergence, mixtures of Cpd. No. 20 with (b15C1)
Format in all cases: in vivo
[1] = test system: large crabgrass (DIGSA; Digitaria sanguinalis)
Excerpt: (§1) This test evaluated the effect of mixtures of Cpd. No. 20 with (b15C1) on several plant species. Seeds of plant species selected from corn (ZEAMD; Zea mays, cv. ‘Pioneer 1184’), soybean (GLXMA; Glycine max, cv. Pioneer 35T58), giant foxtail (SETFA; Setaria faberi), barnyardgrass (ECHCG; Echinochloa crus-galli), large crabgrass (DIGSA; Digitaria sanguinalis), palmer amaranth (AMAPA; Amaranthus palmeri), common waterhemp (AMATU; Amaranthus rudis), and common ragweed (AMBEL; Ambrosia artemisiifolia) were planted in pots containing Tama Silt Loam soil and treated preemergence with a directed soil spray using test chemicals formulated in a non-phytotoxic solvent mixture which included a surfactant.
(§2) Treated plants and untreated controls were maintained in a greenhouse for approximately 21 d, after which time all treated plants were compared to untreated controls and visually evaluated for injury. Plant response ratings, summarized in Table G, are based on a 0 to 100 scale where 0 is no effect and 100 is complete control. A dash (-) response means no test result. Test results are presented as a mean of 4 reps.

[2] = test system: giant foxtail (SETFA; Setaria faberi)
Excerpt: as §1, §2

[3] = test system: corn (ZEAMD; Zea mays, cv. ‘Pioneer 1184’)
Excerpt: as §1, §2

[4] = test system: barnyardgrass (ECHCG; Echinochloa crus-galli)
Excerpt: as §1, §2

[5] = test system: common waterhemp (AMATU; Amaranthus rudis)
Excerpt: as §1, §2

[6] = test system: palmer amaranth (AMAPA; Amaranthus palmeri)
Excerpt: as §1, §2

[7] = test system: soybean (GLXMA; Glycine max, cv. Pioneer 35T58)
Excerpt: as §1, §2

[8] = test system: common ragweed (AMBEL; Ambrosia artemisiifolia)
Excerpt: as §1, §2

## FC(F)c1cc(-c2c(Cl)cccc2Oc2ncc(Cl)cn2)on1 [(b15C1), 5-chloro-2-[3-chloro-2-[3-(difluoromethyl)-5-isoxazolyl]phenoxy]-pyrimidine, reference compound]
[1]; (b15C1) 8 g a.i./ha alone
  Plant response rating (0 to 100 scale): 54
[1]; (b15C1) 16 g a.i./ha alone
  Plant response rating (0 to 100 scale): 90
[1]; (b15C1) 31 g a.i./ha alone
  Plant response rating (0 to 100 scale): 100
[2]; (b15C1) 8 g a.i./ha alone
  Plant response rating (0 to 100 scale): 5
[2]; (b15C1) 16 g a.i./ha alone
  Plant response rating (0 to 100 scale): 34
[2]; (b15C1) 31 g a.i./ha alone
  Plant response rating (0 to 100 scale): 74
[3]; (b15C1) 8 g a.i./ha alone
  Plant response rating (0 to 100 scale): 0
[3]; (b15C1) 16 g a.i./ha alone
  Plant response rating (0 to 100 scale): 0
[3]; (b15C1) 31 g a.i./ha alone
  Plant response rating (0 to 100 scale): 0
[4]; (b15C1) 8 g a.i./ha alone
  Plant response rating (0 to 100 scale): 0
[4]; (b15C1) 16 g a.i./ha alone
  Plant response rating (0 to 100 scale): 0
[4]; (b15C1) 31 g a.i./ha alone
  Plant response rating (0 to 100 scale): 35
[5]; (b15C1) 8 g a.i./ha alone
  Plant response rating (0 to 100 scale): 0
[5]; (b15C1) 16 g a.i./ha alone
  Plant response rating (0 to 100 scale): 0
[5]; (b15C1) 31 g a.i./ha alone
  Plant response rating (0 to 100 scale): 20
[6]; (b15C1) 8 g a.i./ha alone
  Plant response rating (0 to 100 scale): 60
[6]; (b15C1) 16 g a.i./ha alone
  Plant response rating (0 to 100 scale): 88
[6]; (b15C1) 31 g a.i./ha alone
  Plant response rating (0 to 100 scale): 97
[7]; (b15C1) 8 g a.i./ha alone
  Plant response rating (0 to 100 scale): 0
[7]; (b15C1) 16 g a.i./ha alone
  Plant response rating (0 to 100 scale): 0
[7]; (b15C1) 31 g a.i./ha alone
  Plant response rating (0 to 100 scale): 0
[8]; (b15C1) 8 g a.i./ha alone
  Plant response rating (0 to 100 scale): 54
[8]; (b15C1) 16 g a.i./ha alone
  Plant response rating (0 to 100 scale): 90
[8]; (b15C1) 31 g a.i./ha alone
  Plant response rating (0 to 100 scale): 100
